The subject of data set [1] is penis. Briefly: Time to penile erection / firmness after taking the ED medication or formulation. Type of data set: in vivo, human. The note with it: blood circulation limited to about 50%; for time it remains effective / time to become effective: normal dose of 100 mg Viagra® or 10 mg Levitra®, one subject. The source says: Responses of individuals to ED medications may vary widely from one to another and from time to time. The nature and intensity of emotional and physical stimulation are significant factors, and the health of the individual can be significant. Fatigue, time of day, time since last coitus or ejaculation, and blood circulation are factors influencing response. One particular subject had no response to Cialis®. Their heart damage and occluded artery limit blood circulation to about 50%. Thus this particular subject is not a good benchmark for measuring the effectiveness of each formulation; this particular subject experiences a normal dose of 100 mg Viagra® or 10 mg Levitra® usually takes about 2 hours to become effective and then remains effective for about 8 hours (double the usual times for a person with normal blood circulation). Nevertheless, this subject has achieved erection and cotius within 30 minutes using some formulations of this invention.

The conditions of data set [2]: cited from earlier work.
A short description of data set [3]: Solubilities of ED medications in solvents known to permeate the skin (Example 1). It is filed as physicochemical. On the procedure:
A series of experiments were performed in order to learn the solubilities of ED medications in solvents known to permeate the skin safely.

Data set [4] in a line: Solubility of ED medications as stated in the description. Type of data set: physicochemical. The source says:
In order for an ED medication to be absorbed into mucosal tissues, it must first be dissolved in a medium of transport. […] Sildenafil citrate is also more soluble in ethanol than water and in propylene glycol than in water.

The source of these data is patent US20140271847A1, “FORMULATIONS AND METHODS FOR RAPID PENILE ERECTIONS” (SatisPharma, LLC, priority 2013, published 2014).

SMILES strings stand for the structures. Counter-ions that a name gives are not always drawn.

Consider `CCCc1nc(C)c2c(=O)[nH]c(-c3cc(S(=O)(=O)N4CCN(CC)CC4)ccc3OCC)nn12` [Vardenafil, vardenafil hydrochloride], for which, in data set [1], the “time it remains effective” value is listed as “about 8 hours” and the “time to become effective” value was “about 2 hours”. The “solubility in alcohols (in words)” value in data set [2] (alcohols) is listed as “freely soluble”. For the same compound, the “solubility in water (in words)” value in data set [2] is recorded as “freely soluble”.

Take `CN1CC(=O)N2[C@H](c3ccc4c(c3)OCO4)c3[nH]c4ccccc4c3C[C@@H]2C1=O` [Tadalafil, tadalafil]: the “response to ED medication” value in data set [1] (one particular subject) was “no response”. Moreover, the “solubility in water (in words)” value in data set [2] is reported as “freely soluble”.

`CCCc1nn(C)c2c(=O)[nH]c(-c3cc(S(=O)(=O)N4CCN(C)CC4)ccc3OCC)nc12.O=C(O)CC(O)(CC(=O)O)C(=O)O` [sildenafil citrate]: the “Result (solubility)” value is on record as “slightly soluble” in data set [3] (35 mg sildenafil citrate in diethylene glycol monoethyl ether, 10 ml); “fully soluble” in data set [3] (35 mg sildenafil citrate in ethanol, 190 proof, 10 ml); “dispersion” in data set [3] (35 mg sildenafil citrate in glycerin, 10 ml + citric acid, 150 mg); “mostly soluble” in data set [3] (35 mg sildenafil citrate in isopropyl myristate, 10 ml); “fully soluble” in data set [3] (35 mg sildenafil citrate in propylene glycol, 10 ml); “dispersion” in data set [3] (35 mg sildenafil citrate in triacetin 10 ml). The “Result (solubility)” value in data set [3] (49 mg sildenafil citrate in nicotine, 2 ml) is listed as “fully soluble”; in data set [3] (70 mg sildenafil citrate in ethanol, 190 proof, 10 ml), “fully soluble”; in data set [3] (70 mg sildenafil citrate in propylene glycol, 10 ml), “mostly soluble”. Besides, the “time it remains effective” value in data set [1] is “about 8 hours”. In addition, in data set [1], the “time to become effective” value is “about 2 hours”. Moreover, in data set [2] (ethanol versus water), the “solubility in ethanol compared with water” value was “more soluble”. The “solubility in propylene glycol compared with water” value in data set [2] (propylene glycol versus water) is on record as “more soluble”. The “solubility in water relative to pH 7.0” value in data set [2] (water at pH=4, relative to 3.5 mg/ml at pH=7.0) is “about triple”. In addition, the solubility in water in data set [2] (water at pH=7.0) is 3500 µg/mL. For the same compound, in data set [4], the solubility in nicotine entry is “surprisingly high solubility”.
